In patent publication US20060068386A1, “Complete genome and protein sequence of the hyperthermophile methanopyrus kandleri av19 and monophyly of archael methanogens and methods of use thereof” (priority 2002, published 2006):
Where two headings read alike, the source gives them in different places. Each block holds one molecule with its values, some of them ahead of it.

Key:
polB DNA polymerase = assay: Thermostability of polB DNA polymerase in various media; assay type: biochemical, Methanopyrus kandleri; settings: 1 M Betaine, potassium glutamate, 100° C.
Experimental: To determine DNA polymerase activity and thermostability of DNA polymerase polB in various media. Proteins in 25 μl of 20 mM Tris-HCl buffer (pH 8.0 at 25° C.) containing indicated concentrations of salts and betaine were incubated in PTC-150 Minicycler (MJ Research) at 95° C. or 100° C. 4 μl samples were removed at defined times of incubation and assayed for primer extension activity.
The stabilizing effect of betaine is diminished in the presence of organic solvents DMSO and formamide.

M.K. polB DNA polymerase = M.K. polB DNA polymerase (Methanopyrus kandleri, UniProt Q8TWJ5); assay: Effects of media components on M.K. polB DNA polymerase activity (primer extension); assay type: biochemical
Chain of M.K. polB DNA polymerase (Q8TWJ5 entry or part of it): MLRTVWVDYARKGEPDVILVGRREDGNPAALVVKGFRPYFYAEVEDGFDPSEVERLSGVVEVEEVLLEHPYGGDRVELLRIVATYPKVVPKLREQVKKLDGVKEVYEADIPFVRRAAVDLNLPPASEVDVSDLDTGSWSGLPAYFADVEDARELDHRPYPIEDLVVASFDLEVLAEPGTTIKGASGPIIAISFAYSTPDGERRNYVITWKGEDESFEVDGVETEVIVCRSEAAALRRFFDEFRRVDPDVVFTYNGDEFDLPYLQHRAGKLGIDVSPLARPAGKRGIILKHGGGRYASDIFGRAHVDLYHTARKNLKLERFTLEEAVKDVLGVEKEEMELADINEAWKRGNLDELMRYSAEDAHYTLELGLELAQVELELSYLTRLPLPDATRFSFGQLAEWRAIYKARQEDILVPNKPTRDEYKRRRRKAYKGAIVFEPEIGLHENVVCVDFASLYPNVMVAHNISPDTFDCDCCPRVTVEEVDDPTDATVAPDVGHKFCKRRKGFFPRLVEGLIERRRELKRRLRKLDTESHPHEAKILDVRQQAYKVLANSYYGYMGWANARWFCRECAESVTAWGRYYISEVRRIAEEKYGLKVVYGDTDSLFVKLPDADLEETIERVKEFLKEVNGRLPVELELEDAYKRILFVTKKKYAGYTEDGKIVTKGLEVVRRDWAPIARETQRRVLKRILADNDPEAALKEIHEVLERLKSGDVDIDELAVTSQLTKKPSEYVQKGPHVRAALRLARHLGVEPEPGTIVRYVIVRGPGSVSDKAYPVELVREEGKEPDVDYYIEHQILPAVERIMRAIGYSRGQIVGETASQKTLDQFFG
Experimental: DNA polymerase reaction mixtures (15-20 μl) contained dATP, dTTP, dCTP, and dGTP (1 mM each), 4.5 mM MgCl2, detergents Tween 20 and Nonidet P-40 (0.2% each), fixed concentrations of PTJ—duplex, other additions, as indicated, and appropriate amounts of polB in 30 mM Tris-HCl buffer pH 8.0 (25° C.). The background reaction mixtures contained all components except DNA polymerases. Primer extensions were carried out for a preset time at 75° C. in PTC-150 Minicycler (MJ Research, Inc.; Waltham, Mass.). 5 μl samples were removed and chilled to 4° C. followed by immediate addition of 20 μl of 20 mM EDTA. The samples were desalted by centrifugation through Sephadex G-50 spun columns, diluted, and analyzed on a ABI Prism 377 DNA sequencer (Applied BioSystems; Foster City, Calif.). For each sample, raw data were extracted from the sequencer trace files with the program Chromas 1.5 (Technelysium Pty Ltd., Australia), and the fluorescent signals were analyzed by our nonlinear regression data analysis programs written in Fortran. The programs applied Powell algorithms to approximate the signals by a number of Gaussian peaks and calculate integral fluorescent intensities for each product peak. The total amount of fluorescent products for each time of incubation was determined, and the initial rates of extension were calculated.
The next two tables (Table 4 and 5) display effects of various media components on M.K. polB DNA polymerase activity. Initial rates of primer extension reaction were measured as described by Pavlov et al., 2002.

[1] = test system: DNA duplex of FIG. 16 (PTJ); assay: Initial rates of primer extension reactions in salts (inhibition of polymerases and chimeras by NaCl, KCl, K-Glu); assay type: biochemical
Experimental: The polymerase activities of the four chimeras were tested by measuring initial rates of primer extension reactions. The reactions were carried out at low concentrations of substrate, when the initial rates were proportional both to total protein and PTJ concentrations. When [PTJ] is much less than Kmapp, the initial rate is determined as in Equation 1: v1=kapp/Kmapp*[Et]*[PTJ]1 Eq. 1 • where Kmapp and kapp are apparent Michaelis and catalytic constants, respectively.
The concentrations of sodium chloride (NaCl), potassium chloride (KCl) and potassium glutamate (K-Glu) were varied to assess inhibition of the Stoffel fragment and KlenTaq, and the four chimeras by salts, and to estimate the effects of the HhH domains.
Experimental values of initial polymerization rates were analyzed by nonlinear regression analysis using Equation 2: [formula] where v and v0 are initial primer extension rates with and without salt, respectively, Ki is the apparent inhibition constant; and α is the cooperativity parameter.
In Table 2, to take into account the activation of Pfu polymerase and the PfuC2 hybrid by KGlu (data entries marked with an asterisk (*), the experimental values of initial polymerization rates were analyzed by nonlinear regression using the Equation 3: [formula]
where v and v0 are initial primer extension rates with and without salt, respectively; Ki is an apparent inhibition constant, α is a parameter of cooperativity, β and γ are parameters of activation. Since γ≅2, it is likely that two ions of Glu^− bind to the Pfu polymerase catalytic domain without inhibiting the polymerase activity.

[2] = test system: Mka PolB 3'-5' exonuclease activity; assay: Effect of salts on 3'-5' exonuclease activity of Mka PolB; assay type: biochemical, Methanopyrus kandleri
Experimental: A 3′→5′ exonuclease activity of polB polymerase was measured at the same conditions as in the primer extension assay, except omitting dideoxynucleotides. A fluorescent primer:
Conclusions: • 1. KGlu inhibits the 3′-5′ exonuclease activity of Mka PolB, while NaCl stimulates it. • 2. KGlu, diphosphoglycerate, and Mka PCNA (see below) increase the polymerase activity of PolB. • 3.

Molecule: C[N+](C)(C)CC(=O)O [Betaine]
effect on thermostability of polB DNA polymerase (polB DNA polymerase): stabilize specifically polB DNA polymerase

Molecule: O=C(O)[C@@H](COP(=O)(O)O)OP(=O)(O)O [diphosphoglycerate]
effect on polymerase activity of PolB (M.K. polB DNA polymerase): increase

IC50 (M.K. polB DNA polymerase; M.K. polB DNA polymerase activity, primer extension, read-out: IC50 (Inhibition constants in different media)): < 30 mM
Molecule: N [NH4OH]

increase of Ki on substituting KCl with KGlu ([1]; KGlu versus KCl): 4 fold
Molecule: Taq Polymerase: DNA polymerase from Thermus aquaticus [reference compound]
NaCl concentration at which 20% inhibition of primer extension reaction occurs ([1]; NaCl): about 90 mM

Molecule: [Cl-].[Na+] [NaCl, sodium chloride]
effect on 3'-5' exonuclease activity of Mka PolB [2]: stimulates

Molecule: N[C@@H](CCC(=O)[O-])C(=O)[O-].[K+].[K+] [KGlu, potassium glutamate]
effect on polymerase activity of PolB (M.K. polB DNA polymerase): increase
increase of polymerase activity of polB (M.K. polB DNA polymerase; 0.8 M of the salt): about twenty-fold
effect on 3'-5' exonuclease activity of Mka PolB [2]: inhibits

Ki ([1]; inhibition by KCl, read-out: Ki (KCl), apparent inhibition constant): 42.6 ± 1 mM
Ki ([1]; inhibition by NaCl, nonlinear regression Eq. 2, read-out: Ki (NaCl), apparent inhibition constant): 51.5 ± 1 mM
B1: Pfu polymerase: whole size Pfu polymerase (protein, UniProt P61875 1-775, looked up)
chain: MILDVDYITEEGKPVIRLFKKENGKFKIEHDRTFRPYIYALLRDDSKIEEVKKITGERHGKIVRIVDVEKVEKKFLGKPITVWKLYLEHPQDVPTIREKVREHPAVVDIFEYDIPFAKRYLIDKGLIPMEGEEELKILAFDIETLYHEGEEFGKGPIIMISYADENEAKVITWKNIDLPYVEVVSSEREMIKRFLRIIREKDPDIIVTYNGDSFDFPYLAKRAEKLGIKLTIGRDGSEPKMQRIGDMTAVEVKGRIHFDLYHVITRTINLPTYTLEAVYEAIFGKPKEKVYADEIAKAWESGENLERVAKYSMEDAKATYELGKEFLPMEIQLSRLVGQPLWDVSRSSTGNLVEWFLLRKAYERNEVAPNKPSEEEYQRRLRESYTGGFVKEPEKGLWENIVYLDFRALYPSIIITHNVSPDTLNLEGCKNYDIAPQVGHKFCKDIPGFIPSLLGHLLEERQKIKTKMKETQDPIEKILLDYRQKAIKLLANSFYGYYGYAKARWYCKECAESVTAWGRKYIELVWKELEEKFGFKVLYIDTDGLYATIPGGESEEIKKKALEFVKYINSKLPGLLELEYEGFYKRGFFVTKKRYAVIDEEGKVITRGLEIVRRDWSEIAKETQARVLETILKHGDVEEAVRIVKEVIQKLANYEIPPEKLAIYEQITRPLHEYKAIGPHVAVAKKLAAKGVKIKPGMVIGYIVLRGDGPISNRAILAEEYDPKKHKYDAEYYIENQVLPAVLRILEGFGYRKEDLRYQKTRQVGLTSWLNIKKS
modifications: full-length
